What follows are compounds tested on SR cells (NPM-ALK, human anaplastic large cell lymphoma cells) (assay: Proliferation inhibition (IC50) in SR cells, CCK8 (WST) reagent). Settings: 72 h, SR cells, WST reagent, 72 hours, read-out: IC50 (half inhibitory concentration), Brigatinib series in lymphoma cell lines.
Format: cell-based
Procedure: The ALK gene rearrangement positive cell line used was SR cells (NPM-ALK, human anaplastic large cell lymphoma cells). MDA-MB231 was a triple-negative breast cancer cell. Both SR cells and MDA-MB231 cells were purchased from ATCC.
The tumor cell line used was daily cultured in a 37° C. incubator containing 5% CO2. The medium was RPMI1640 supplemented with 10% FCS and Penicillin-Streptomycin.
The IC50 of the compound of the present disclosure was determined using Promega's Cell Titer Blue, Cell Titer GLO or commercially available WST reagents. The specific steps were as follows: the cells were seeded in a 96-well plate containing 100 microliters of RPMI medium containing serum at a number of 2000 cells/well. On the second day, the original drug and the compound of the present disclosure were serially diluted and added to the cells. After 72 hours of treatment with the compound of the present disclosure, the cell activity detection reagent was added to the culture medium for cell activity determination according to the instructions. The negative control was DMSO, and the positive control was the original drug, and the cells were treated in the same manner as the compound of the present disclosure. The growth inhibition of the compounds of the present disclosure on cells was plotted by Prism Graphpad software and the IC50 of the compounds of the present disclosure was counted from it.
We conducted dose-dependent experiments on the designed and synthesized compounds of the present disclosure in SR cells. […] The cells were treated with different concentrations of compounds (starting at 10 μM, 3 times dilution factor, 10 concentrations). After 72 hours, the cells were detected using CCK8 reagent (WST).

Structure (SMILES)	IC50 [nM]
COc1cc(N2CCC(NCCCCCCSc3cccc4c3CN(C3CCC(=O)NC3=O)C4=O)CC2)ccc1Nc1ncc(Cl)c(Nc2ccccc2P(=O)(OC)OC)n1 (stereo not drawn) [SIAIS293110, 3-(4-((6-((1-(4-((5-chloro-4-((2-(dimethylphosphono)phenyl)amino)pyrimidin-2-yl)amino)-3-methoxyphenyl)piperidin-4-yl)amino)hexyl)thio)-1-oxoisoindolin-2-yl)piperidine-2,6-dione]	0.33 ± 0.11
COc1cc(N2CCC(N3CCN(CCCC#Cc4cccc5c4C(=O)N(C4CCC(=O)NC4=O)C5=O)CC3)CC2)ccc1Nc1ncc(Cl)c(Nc2ccccc2P(C)(C)=O)n1 (stereo not drawn) [SIAIS352010, 4-(5-(4-(1-(4-((5-chloro-4-((2-(dimethylphosphono)phenyl)amino)pyrimidin-2-yl)amino)-3-methoxyphenyl)piperidin-4-yl)piperazin-1-yl)pent-1-yn-1-yl)-2-(2,6-dioxopiperidin-3-yl)isoindoline-1,3-dione]	19 ± 5.8
COc1cc(N2CCC(N3CCN(C(=O)COCCOCCNc4cccc5c4CN(C4CCC(=O)NC4=O)C5=O)CC3)CC2)ccc1Nc1ncc(Cl)c(Nc2ccccc2P(C)(C)=O)n1 (stereo not drawn) [SIAIS352054, 3-(4-((2-(2-(2-(4-(1-(4-((5-chloro-4-((2-(dimethylphosphono)phenyl)amino)pyrimidine-2-yl)amino)-3-methoxyphenyl)piperidin-4-yl)piperazin-1-yl)-2-oxoethoxy)ethoxy)ethyl)amino)-1-oxoisoindolin-2-yl)piperidine-2,6-dione]	22 ± 10.9
COc1cc(N2CCC(N3CCN(C(=O)COCCOCCOCCOCCOCCNc4cccc5c4CN(C4CCC(=O)NC4=O)C5=O)CC3)CC2)ccc1Nc1ncc(Cl)c(Nc2ccccc2P(C)(C)=O)n1 (stereo not drawn) [SIAIS352057, 3-(4-((17-(4-(1-(4-((5-chloro-4-((2-(dimethylphosphono)phenyl)amino)pyrimidin-2-yl)amino)-3-methoxyphenyl)piperidin-4-yl)piperazin-1-yl)-17-oxo-3,6,9,12,15-pentaoxaheptadecyl)amino)-1-oxoisoindolin-2-yl)piperidine-2,6-dione]	102 ± 43.9
COc1cc(N2CCC(N(C)C(=O)CSc3cccc4c3CN(C3CCC(=O)NC3=O)C4=O)CC2)ccc1Nc1ncc(Cl)c(Nc2ccccc2P(C)(C)=O)n1 (stereo not drawn) [SIAIS353007, N-(1-(4-((5-chloro-4-((2-(dimethylphosphono)phenyl)amino)pyrimidin-2-yl)amino)-3-methoxyphenyl)piperidin-4-yl)-2-((2-(2,6-dioxopiperidin-3-yl)-1-oxoisoindolin-4-yl)thio)-N-methyl acetamide]	17.1 ± 10.9
COc1cc(N2CCC(N(C)CCCCCCSc3cccc4c3CN(C3CCC(=O)NC3=O)C4=O)CC2)ccc1Nc1ncc(Cl)c(Nc2ccccc2P(C)(C)=O)n1 (stereo not drawn) [SIAIS353041, 3-(4-((6-((1-(4-((5-chloro-4-((2-(dimethylphosphono)phenyl)amino)pyrimidin-2-yl)amino)-3-methoxyphenyl)piperidin-4-yl)(methyl)amino)hexyl)thio)-1-oxoisoindolin-2-yl)piperidine-2,6-dione]	0.5 ± 0.2
COc1cc(N2CCC(N(C)CCCCSc3cccc4c3CN(C3CCC(=O)NC3=O)C4=O)CC2)ccc1Nc1ncc(Cl)c(Nc2ccccc2P(C)(C)=O)n1 (stereo not drawn) [SIAIS353043, 3-(4-((4-((1-(4-((5-chloro-4-((2-(dimethylphosphono)phenyl)amino)pyrimidin-2-yl)amino)-3-methoxyphenyl)piperidin-4-yl) (methyl)amino)butyl)thio)-1-oxoisoindolin-2-yl)piperidine-2,6-dione]	0.9 ± 0.2

Now from value to compound:

IC50 [nM]	Structure (SMILES)
1.2	COc1cc(N2CCC(N3CCN(CCCCCC#Cc4cccc5c4CN(C4CCC(=O)NC4=O)C5=O)CC3)CC2)ccc1Nc1ncc(Cl)c(Nc2ccccc2P(C)(C)=O)n1 (stereo not drawn) [SIAIS293015, 3-(4-(7-(4-(1-(4-((5-chloro-4-((2-(dimethylphosphono)phenyl)amino)pyrimidin-2-yl)amino)-3-methoxyphenyl)piperidin-4-yl)piperazin-1-yl)hept-1-yn-1-yl)-1-oxoisoindolin-2-yl)piperidine-2,6-dione]
7.2	COc1cc(N2CCC(N3CCN(C(=O)COc4cccc5c4C(=O)N(C4CCC(=O)NC4=O)C5=O)CC3)CC2)ccc1Nc1ncc(Cl)c(Nc2ccccc2P(C)(C)=O)n1 (stereo not drawn) [SIAIS293016, 4-(2-(4-(1-(4-((5-chloro-4-((2-(dimethylphosphono)phenyl)amino)pyrimidin-2-yl)amino)-3-methoxyphenyl)piperidin-4-yl)piperazin-1-yl)-2-oxoethoxy)-2-(2,6-dioxopiperidin-3-yl)isoindoline-1,3-dione]
15 ± 4.4	COc1cc(N2CCC(N3CCN(C(=O)COCCOCCOCCNc4cccc5c4CN(C4CCC(=O)NC4=O)C5=O)CC3)CC2)ccc1Nc1ncc(Cl)c(Nc2ccccc2P(C)(C)=O)n1 (stereo not drawn) [SIAIS352055, 3-(4-((2-(2-(2-(2-(4-(1-(4-((5-chloro-4-((2-(dimethylphosphono)phenyl)amino)pyrimidin-2-yl)amino)-3-methoxyphenyl)piperidin-4-yl)piperazin-1-yl)-2-oxoethoxy)ethoxy)ethoxy)ethyl)amino)-1-oxoisoindolin-2-yl)piperidine-2,6-dione]
84.5 ± 17.3	COc1cc(N2CCC(N3CCN(C(=O)COCCOCCOCCOCCNc4cccc5c4CN(C4CCC(=O)NC4=O)C5=O)CC3)CC2)ccc1Nc1ncc(Cl)c(Nc2ccccc2P(C)(C)=O)n1 (stereo not drawn) [SIAIS352056, 3-(4-((14-(4-(1-(4-((5-chloro-4-((2-(dimethylphosphono)phenyl)amino)pyrimidin-2-yl)amino)-3-methoxyphenyl)piperidin-4-yl)piperazin-1-yl)-14-oxo-3,6,9,12-tetraoxatetradecyl)amino)-1-oxoisoindolin-2-yl)piperidine-2,6-dione]
10.5 ± 5.6	COc1cc(N2CCC(N(C)C(=O)CCCCCSc3cccc4c3CN(C3CCC(=O)NC3=O)C4=O)CC2)ccc1Nc1ncc(Cl)c(Nc2ccccc2P(C)(C)=O)n1 (stereo not drawn) [SIAIS353009, N-(1-(4-((5-chloro-4-((2-(dimethylphosphono)phenyl)amino)pyrimidin-2-yl)amino)-3-methoxyphenyl)piperidin-4-yl)-6-((2-(2,6-dioxopiperidin-3-yl)-1-oxoisoindolin-4-yl)thio)-N-methyl hexanamide]

Same assay, conditions: 72 h, read-out: IC50 (half inhibitory concentration), Alectinib series in lymphoma cell lines, SR cells, WST reagent, 72 hours

IC50 [nM]	Structure (SMILES)
15.1	CCc1cc2c(cc1N1CCC(N3CCN(CCCCCCNc4cccc5c4C(=O)N(C4CCC(=O)NC4=O)C5=O)CC3)CC1)C(C)(C)c1[nH]c3cc(C#N)ccc3c1C2=O (stereo not drawn) [SIAIS293009, 8-(4-(4-(6-((2-(2,6-dioxopiperidin-3-yl)-1,3-dioxoisoindolin-4-yl)amino)hexyl)piperazin-1-yl)piperidin-1-yl)-9-ethyl-6,6-dimethyl-11-oxo-6,11-dihydro-5H-benzo[b]carbazole-3-carbonitrile]
10.3 ± 5.1	CCc1cc2c(cc1N1CCC(NC(=O)CCCCNc3cccc4c3CN(C3CCC(=O)NC3=O)C4=O)CC1)C(C)(C)c1[nH]c3cc(C#N)ccc3c1C2=O (stereo not drawn) [SIAIS293012, N-(1-(3-cyano-9-ethyl-6,6-dimethyl-11-oxo-6,11-dihydro-5H-benzo[b]carbazol-8-yl)piperidin-4-yl)-5-((2-(2,6-dioxopiperidin-3-yl)-1-oxoisoindolin-4-yl)amino)pentanamide]
3.2	CCc1cc2c(cc1N1CCC(N3CCN(CCCCCC#Cc4cccc5c4CN(C4CCC(=O)NC4=O)C5=O)CC3)CC1)C(C)(C)c1[nH]c3cc(C#N)ccc3c1C2=O (stereo not drawn) [SIAIS293014, 8-(4-(4-(7-(2-(2,6-dioxopiperidin-3-yl)-1-oxoisoindolin-4-yl)hept-6-yn-1-yl)piperazin-1-yl)piperidin-1-yl)-9-ethyl-6,6-dimethyl-11-oxo-6,11-dihydro-5H-benzo[b]carbazole-3-carbonitrile]
0.1 ± 0.02	CCc1cc2c(cc1N1CCC(N3CCN(CCCCSc4cccc5c4CN(C4CCC(=O)NC4=O)C5=O)CC3)CC1)C(C)(C)c1[nH]c3cc(C#N)ccc3c1C2=O (stereo not drawn) [SIAIS293060, 8-(4-(4-(4-((2-(2,6-dioxopiperidin-3-yl)-1-oxoisoindolin-4-yl)thio)butyl)piperazin-1-yl)piperidin-1-yl)-9-ethyl-6,6-dimethyl-11-oxo-6,11-dihydro-5H-benzo[b]carbazole-3-carbonitrile]
6.5 ± 4	CCc1cc2c(cc1N1CCN(CCCCCc3cccc4c3CN(C3CCC(=O)NC3=O)C4=O)CC1)C(C)(C)c1[nH]c3cc(C#N)ccc3c1C2=O (stereo not drawn) [SIAIS350081, 8-(4-(5-(2-(2,6-dioxopiperidin-3-yl)-1-oxoisoindolin-4-yl)pentyl)piperazin-1-yl)-9-ethyl-6,6-dimethyl-11-oxo-6,11-dihydro-5H-benzo[b]carbazole-3-carbonitrile]
1.1 ± 0.7	CCc1cc2c(cc1N1CCC(N3CCN(CCCCCc4cccc5c4CN(C4CCC(=O)NC4=O)C5=O)CC3)CC1)C(C)(C)c1[nH]c3cc(C#N)ccc3c1C2=O (stereo not drawn) [SIAIS350083, 8-(4-(4-(5-(2-(2,6-dioxopiperidin-3-yl)-1-oxoisoindolin-4-yl)pentyl)piperazin-1-yl)piperidin-1-yl)-9-ethyl-6,6-dimethyl-11-oxo-6,11-dihydro-5H-benzo[b]carbazole-3-carbonitrile]

From patent US12390532B2, “ALK protein regulator and anti-tumor application thereof” (SHANGHAITECH UNIVERSITY, priority 2019, dated 2025)
